# Source: patent US11173160B2 (UNIVERSITY OF PITTSBURGH—OF THE COMMONWEALTH SYSTEM OF …, priority 2019, dated 2021)
# Entries after “also recorded” stand apart in the source; their conditions may differ. Read-outs that look alike come from different tables or passages of the source.
# Key:
# [1] = cited from earlier work
# [2] = molecular target: MAPKAP-K2 (Homo sapiens, UniProt P49137); conditions: cited from earlier work
# [3] = molecular target: MKK6 (Homo sapiens, UniProt P52564); conditions: cited from earlier work
# [4] = molecular target: TAK1 (Homo sapiens, UniProt O43318); conditions: cited from earlier work
# [5] = molecular target: IGF-1R (Homo sapiens, UniProt P08069); conditions: cited from earlier work
# [6] = molecular target: CDK3 (Homo sapiens, UniProt Q00526); conditions: Source Millipore; 10-point titration in duplicates, done once; cited from earlier work
# [7] = test system: DIPG-007, DIPG-IV, and SF8628 cells; assay: direct Trypan-Blue automated cell count; assay type: cell-based, human; conditions: 50 nM of TG02, 9 days of treatment, vs vehicle
# Experimental: FIGS. 5A-5K provide that pharmacological inhibition of ERK5 triggered cell death and apoptosis in DIPG cells. […] (5C-5E).
# Direct cell counts were performed using the Countess II FL Automated Cell Counter (ThermoFisher Scientific). Alamar blue viability (ThermoFisher Scientific) and the 5-bromo-2′-deoxyuridine (BrdU) incorporated cell proliferation assay (Cell Signaling Technology Cat #6813) were performed using the manufacturer's standard protocol. EC50 curve analysis was performed using raw fluorescent Alamar blue values that were inputted into PRISM 7.0. Drug concentrations were log 10 transformed and values normalized to percent viability with respect to vehicle treated cells. EC50 values were interpolated from a log inhibitor vs. normalized response with variable slope using a least square fit model.
# [8] = molecular target: c-Raf (Homo sapiens, UniProt P04049); conditions: cited from earlier work
# [9] = test system: ERK5 auto-phosphorylation and cleaved PARP in tumor; assay: western blot of tumor lysates from treated mice; assay type: in vivo; conditions: mice sacrificed after 5 days of treatment with TG02
# Experimental: Total ERK5 was used as a loading control.
# All animal procedures were carried out ethically according to animal user protocols approved by Institutional Animal Care Committee (IACUC). 4-6 week-old non-obese diabetic severe combined immune deficiency male or female mice (NOD-SCID-Prkdc^scid) were injected with 1×10^5 SU-DIPG-13p cells or 1×10^5 SF8628 DIPG cells. Cells were re-suspended in 2 μl of PBS and injected into the pons/midbrain using a stereotactic frame (Stoelting) and automated cell injector (Stoelting) with cells delivered over 4 minutes. Coordinates were as follows from the Lambda suture (x=0.8 mm, y=−0.8 mm, z=−5.0 mm). […]
# [10] = cited from earlier work; remark: listed apart in the source
# [11] = molecular target: PLK3 (Homo sapiens, UniProt Q9H4B4); conditions: cited from earlier work
# [12] = molecular target: ERK5 (Homo sapiens, UniProt Q13164); assay: in vitro kinase assay of purified recombinant ERK5 and MYC; assay type: biochemical; conditions: ERK5 and ATP, 30 minutes at 30° C.
# Experimental: Purified active recombinant ERK5 protein was purchased from ThermoFisher Scientific (Cat #A32872) and purified recombinant MYC was purchased from Abcam (Cat #ab84132). Purified ERK5 and MYC were resuspended in 40 μl of 1× kinase buffer supplemented with […] ATP, 0.25 μg substrate, and 1.0 μg purified recombinant and active kinase. Samples were incubated in the presence or absence of an ERK5 inhibitor for 30 minutes at 30° C. The reaction was terminated with 20 μl 3×SDS sample buffer. Samples were then boiled at 100° C. for 5 minutes and then evaluated by western blotting using a phospho MYC ser62 antibody (1:1000). 1× Kinase Buffer recipe: 25 mM Tris (pH 7.5), 5 mM O-glycerophosphate, 2 mM DTT, 0.1 mM Na3VO4, 10 mM MgCl2.
# [13] = molecular target: DYRKIB (Homo sapiens, UniProt Q9Y463); conditions: cited from earlier work
# [14] = molecular target: CDK4 (Homo sapiens, UniProt P11802); conditions: cited from earlier work
# [15] = human pharmacokinetics of TG02 as a single agent
# [16] = molecular target: Fyn (Homo sapiens, UniProt P06241); conditions: Source Millipore; 10-point titration in duplicates, done once; cited from earlier work
# [17] = molecular target: CYP1A2 (Homo sapiens, UniProt P05177); conditions: cited from earlier work
# [18] = molecular target: JNK1 (Homo sapiens, UniProt P45983); conditions: cited from earlier work
# [19] = molecular target: JAK3 (Homo sapiens, UniProt P52333); conditions: cited from earlier work
# [20] = test system: tumor cells (DIPG); assay: cell viability with TG02 and radiation (cell count/trypan blue); assay type: cell-based; conditions: day 5
# Experimental: Cells were plated on day 1 (1×10^6). […] On day 5, cell viability were measured by cell count/trypan blue assay on thermo cell countess machines. For fractionated rad, additional 1.8 Gy doses were given on days 3 and 4. […] Therefore, the combination of TG02 and radiation can provide significant, synergistic benefits for treating DIPG as compared to when TG02 and radiation are administered alone.
# [21] = molecular target: Src (Homo sapiens, UniProt P12931); conditions: cited from earlier work
# [22] = molecular target: InsR (Homo sapiens, UniProt P06213); conditions: cited from earlier work
# [23] = test system: DIPG-13p and SF8628 cells; assay: cell growth and Annexin-PI apoptosis assay; assay type: cell-based, human
# Experimental: FIG. 12E provides Annexin-PI quantification of DIPG cells treated in biological triplicates with ERK5 inhibitors at 48 h from (FIGS. 12C-12D).
# Apoptosis was quantified using the Pacific Blue Annexin V Apoptosis Detection Kit with propidium iodide (BioLegend, San Diego, Calif. Cat #640926). Analysis was performed at the Flow Cytometry Core, Rangos Research Center, UPMC Children's Hospital of Pittsburgh.
# Sequence of MKK6 (P52564 whole entry): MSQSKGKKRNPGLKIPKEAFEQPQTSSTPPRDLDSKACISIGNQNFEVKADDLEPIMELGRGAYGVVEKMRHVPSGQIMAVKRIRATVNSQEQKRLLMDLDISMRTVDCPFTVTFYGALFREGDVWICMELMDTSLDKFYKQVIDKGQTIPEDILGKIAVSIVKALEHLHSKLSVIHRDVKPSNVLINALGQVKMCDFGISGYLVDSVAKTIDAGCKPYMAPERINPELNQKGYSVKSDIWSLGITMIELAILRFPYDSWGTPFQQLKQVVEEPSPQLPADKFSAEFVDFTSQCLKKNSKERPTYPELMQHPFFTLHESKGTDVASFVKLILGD
# Sequence of TAK1 (O43318 1-303 limits assumed): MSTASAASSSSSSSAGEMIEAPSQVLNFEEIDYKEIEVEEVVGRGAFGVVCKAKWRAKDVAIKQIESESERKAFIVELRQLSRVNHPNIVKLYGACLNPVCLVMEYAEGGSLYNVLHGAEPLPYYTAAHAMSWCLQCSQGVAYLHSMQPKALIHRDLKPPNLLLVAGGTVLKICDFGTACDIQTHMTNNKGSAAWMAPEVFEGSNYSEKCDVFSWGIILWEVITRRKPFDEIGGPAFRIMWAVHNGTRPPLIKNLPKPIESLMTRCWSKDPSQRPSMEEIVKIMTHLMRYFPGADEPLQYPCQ
# Sequence of PLK3 (Q9H4B4 whole entry, species assumed): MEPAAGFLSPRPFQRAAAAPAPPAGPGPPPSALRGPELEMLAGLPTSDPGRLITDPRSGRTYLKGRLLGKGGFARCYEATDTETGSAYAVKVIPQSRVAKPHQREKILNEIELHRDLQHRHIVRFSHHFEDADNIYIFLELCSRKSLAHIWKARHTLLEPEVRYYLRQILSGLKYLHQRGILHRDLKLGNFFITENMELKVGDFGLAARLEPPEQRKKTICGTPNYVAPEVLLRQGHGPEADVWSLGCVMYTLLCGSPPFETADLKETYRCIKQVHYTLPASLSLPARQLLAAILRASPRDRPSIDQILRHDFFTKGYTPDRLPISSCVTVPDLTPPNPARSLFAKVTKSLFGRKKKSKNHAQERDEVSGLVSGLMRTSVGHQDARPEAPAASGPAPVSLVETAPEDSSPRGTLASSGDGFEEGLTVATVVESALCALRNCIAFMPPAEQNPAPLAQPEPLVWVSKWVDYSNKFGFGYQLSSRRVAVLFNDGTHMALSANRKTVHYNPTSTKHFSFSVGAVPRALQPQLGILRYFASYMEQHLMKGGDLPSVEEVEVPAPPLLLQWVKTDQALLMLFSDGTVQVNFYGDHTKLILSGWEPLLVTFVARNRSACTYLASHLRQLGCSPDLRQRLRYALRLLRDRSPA
# Sequence of JNK1 (P45983 whole entry): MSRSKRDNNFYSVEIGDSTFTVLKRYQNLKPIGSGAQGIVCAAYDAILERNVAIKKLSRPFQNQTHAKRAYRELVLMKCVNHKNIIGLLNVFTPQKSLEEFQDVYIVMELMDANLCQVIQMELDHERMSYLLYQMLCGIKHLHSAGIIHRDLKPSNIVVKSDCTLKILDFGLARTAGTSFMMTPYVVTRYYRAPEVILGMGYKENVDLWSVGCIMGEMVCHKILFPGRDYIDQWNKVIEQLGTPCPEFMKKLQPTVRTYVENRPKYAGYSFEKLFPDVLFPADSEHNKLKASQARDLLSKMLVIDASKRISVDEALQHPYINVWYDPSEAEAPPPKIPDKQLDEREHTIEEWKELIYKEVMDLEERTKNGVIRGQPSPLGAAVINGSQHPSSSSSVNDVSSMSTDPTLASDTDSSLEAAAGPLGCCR
# Sequence of ERK5 (Q13164 whole entry): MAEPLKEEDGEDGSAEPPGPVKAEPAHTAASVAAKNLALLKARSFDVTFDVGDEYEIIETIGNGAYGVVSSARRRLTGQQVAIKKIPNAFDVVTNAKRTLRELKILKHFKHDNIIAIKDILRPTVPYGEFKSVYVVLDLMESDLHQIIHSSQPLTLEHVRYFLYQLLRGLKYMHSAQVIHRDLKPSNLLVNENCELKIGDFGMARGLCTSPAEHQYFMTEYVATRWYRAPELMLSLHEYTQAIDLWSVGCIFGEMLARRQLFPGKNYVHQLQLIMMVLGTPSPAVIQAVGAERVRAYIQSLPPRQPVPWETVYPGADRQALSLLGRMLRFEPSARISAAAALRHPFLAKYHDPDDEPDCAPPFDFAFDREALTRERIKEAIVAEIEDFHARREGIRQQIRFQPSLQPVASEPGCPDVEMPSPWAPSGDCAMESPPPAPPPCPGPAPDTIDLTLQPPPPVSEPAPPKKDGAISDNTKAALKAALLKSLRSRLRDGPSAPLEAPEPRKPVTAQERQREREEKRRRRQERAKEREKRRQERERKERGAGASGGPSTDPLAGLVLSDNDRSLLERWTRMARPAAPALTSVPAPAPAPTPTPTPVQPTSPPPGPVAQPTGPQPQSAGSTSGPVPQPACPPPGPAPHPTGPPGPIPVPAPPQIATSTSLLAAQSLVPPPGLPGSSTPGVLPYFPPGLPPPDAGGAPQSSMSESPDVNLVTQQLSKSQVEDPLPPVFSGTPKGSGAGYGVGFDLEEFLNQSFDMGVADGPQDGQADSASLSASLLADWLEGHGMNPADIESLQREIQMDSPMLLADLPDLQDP
# Sequence of CDK4 (P11802 whole entry): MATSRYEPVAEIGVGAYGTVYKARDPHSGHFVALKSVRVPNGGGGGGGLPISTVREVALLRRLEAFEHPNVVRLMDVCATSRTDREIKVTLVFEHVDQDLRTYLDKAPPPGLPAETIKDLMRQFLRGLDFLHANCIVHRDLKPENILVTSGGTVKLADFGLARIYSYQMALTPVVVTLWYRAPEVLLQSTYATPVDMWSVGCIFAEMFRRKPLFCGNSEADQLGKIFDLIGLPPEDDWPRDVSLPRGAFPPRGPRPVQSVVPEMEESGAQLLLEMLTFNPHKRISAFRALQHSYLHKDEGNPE
# Sequence of CDK4 (P24385 whole entry partner): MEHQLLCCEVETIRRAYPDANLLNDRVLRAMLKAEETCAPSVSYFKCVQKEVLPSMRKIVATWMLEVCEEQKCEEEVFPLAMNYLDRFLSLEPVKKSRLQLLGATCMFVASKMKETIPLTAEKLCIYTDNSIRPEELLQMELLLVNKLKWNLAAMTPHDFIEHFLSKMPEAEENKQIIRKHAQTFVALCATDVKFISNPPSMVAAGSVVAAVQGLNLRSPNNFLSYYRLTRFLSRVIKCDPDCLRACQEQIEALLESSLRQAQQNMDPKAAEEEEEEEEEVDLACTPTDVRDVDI
# Sequence of CDK3 (Q00526 whole entry): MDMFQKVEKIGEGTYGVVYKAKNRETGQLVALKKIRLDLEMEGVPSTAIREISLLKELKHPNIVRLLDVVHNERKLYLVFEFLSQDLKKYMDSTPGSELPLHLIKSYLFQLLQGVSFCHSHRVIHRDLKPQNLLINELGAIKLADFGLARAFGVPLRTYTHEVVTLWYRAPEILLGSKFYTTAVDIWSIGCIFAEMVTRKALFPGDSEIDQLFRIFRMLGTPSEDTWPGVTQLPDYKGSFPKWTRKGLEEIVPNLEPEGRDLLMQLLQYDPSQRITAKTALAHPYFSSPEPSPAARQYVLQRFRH
# Sequence of CDK3 (P24864 whole entry partner): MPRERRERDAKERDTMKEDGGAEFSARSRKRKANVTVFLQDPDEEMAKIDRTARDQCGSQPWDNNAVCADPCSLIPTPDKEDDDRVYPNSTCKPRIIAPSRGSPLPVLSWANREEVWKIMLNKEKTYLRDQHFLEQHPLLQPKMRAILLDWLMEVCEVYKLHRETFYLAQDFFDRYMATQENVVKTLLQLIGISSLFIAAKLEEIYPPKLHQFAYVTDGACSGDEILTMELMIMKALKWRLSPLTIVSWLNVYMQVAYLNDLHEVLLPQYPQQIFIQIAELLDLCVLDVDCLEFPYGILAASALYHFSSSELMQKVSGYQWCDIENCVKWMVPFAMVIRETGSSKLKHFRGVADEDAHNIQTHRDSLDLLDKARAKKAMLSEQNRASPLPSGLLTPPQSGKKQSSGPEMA
# Sequence of JAK3 (P52333 whole entry): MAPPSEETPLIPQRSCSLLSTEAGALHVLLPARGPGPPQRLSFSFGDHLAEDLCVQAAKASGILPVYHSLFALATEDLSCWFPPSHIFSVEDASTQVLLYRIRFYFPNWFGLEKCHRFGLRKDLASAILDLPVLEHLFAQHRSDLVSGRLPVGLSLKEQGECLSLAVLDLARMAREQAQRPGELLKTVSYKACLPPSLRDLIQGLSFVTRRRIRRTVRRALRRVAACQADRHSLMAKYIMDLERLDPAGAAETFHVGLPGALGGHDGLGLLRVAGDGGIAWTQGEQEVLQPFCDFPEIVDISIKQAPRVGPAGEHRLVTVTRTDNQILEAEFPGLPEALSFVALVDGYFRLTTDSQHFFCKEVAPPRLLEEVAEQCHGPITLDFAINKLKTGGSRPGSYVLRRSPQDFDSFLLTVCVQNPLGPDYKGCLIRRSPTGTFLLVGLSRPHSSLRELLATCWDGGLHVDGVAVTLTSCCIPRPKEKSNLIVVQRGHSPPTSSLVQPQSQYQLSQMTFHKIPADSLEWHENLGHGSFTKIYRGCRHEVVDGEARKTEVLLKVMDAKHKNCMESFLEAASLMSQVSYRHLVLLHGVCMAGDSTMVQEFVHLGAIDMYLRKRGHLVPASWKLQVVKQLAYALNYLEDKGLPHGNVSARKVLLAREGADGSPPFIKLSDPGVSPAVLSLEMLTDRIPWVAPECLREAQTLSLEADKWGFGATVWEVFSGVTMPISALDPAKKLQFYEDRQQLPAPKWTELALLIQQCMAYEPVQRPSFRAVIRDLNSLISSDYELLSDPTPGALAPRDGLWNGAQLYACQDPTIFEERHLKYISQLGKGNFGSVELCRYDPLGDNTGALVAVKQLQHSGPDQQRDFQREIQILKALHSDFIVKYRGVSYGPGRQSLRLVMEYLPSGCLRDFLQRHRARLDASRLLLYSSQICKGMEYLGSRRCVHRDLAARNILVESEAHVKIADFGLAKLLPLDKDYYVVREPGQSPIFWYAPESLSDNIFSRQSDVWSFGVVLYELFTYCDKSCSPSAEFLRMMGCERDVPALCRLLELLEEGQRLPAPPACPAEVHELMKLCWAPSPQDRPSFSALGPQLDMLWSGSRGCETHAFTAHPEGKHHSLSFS
smiles,measurement,setting,value
"CN1C/C=C/CCOc2cccc(c2)-c2ccnc(n2)Nc2cccc(c2)C1 [TG02, (16E)-14-methyl-20-oxa-5,7,14,27-tetraazatetracyclo[19.3.1.12,6.18,12]heptacosa-1(25),2(27),3,5,8(26),9,11,16,21,23-decaene]",peak concentration in plasma,"[1]; adults, single dose of 200 mg","4,000 ng/mL"
same,Cmax and AUC0-t dose dependence,[1]; doses between 10 and 200 mg,dose-proportional increase
same,t1/2,[1]; in vivo,approximately 18 hrs
same,inhibition at 100 nm,[2],less than 50%
same,inhibition at 100 nm,[3],less than 50%
same,inhibition at 100 nm,[4],less than 50%
same,inhibition at 100 nm,[5],less than 50%
same,IC50,[6],8 nM
same,cell number,[7],significant decreases in cell number
same,inhibition at 100 nm,[8],less than 50%
same,in vivo ERK5 auto-phosphorylation,[9],inhibition of ERK5 auto-phosphorylation
same,in vivo apoptosis by cleaved PARP,[9],induction of apoptosis
same,inhibition at 100 nm,[10],less than 50%
same,inhibition at 100 nm,[11],less than 50%
same,phosphorylation of MYC(S62) by ERK5,[12],inhibited
same,inhibition at 100 nm,[13],less than 50%
same,inhibition at 100 nm,[14],less than 50%
same,peak concentration in plasma,"[15]; adults, single dose of 200 mg, equivalent","11,000 nM"
same,Cmax in adults over in vitro IC50 in patient-derived DIPG cell lines,[15]; in vivo,~2 logs
same,IC50,[16],15 nM
same,substrate of CYP1A2,[17],substrate
same,inhibition at 100 nm,[18],less than 50%
same,inhibition at 100 nm,[19],less than 50%
same,"tumor cell viability, TG02 alone",[20]; vehicle control about 100%,50%
same,"tumor cell viability, TG02 and radiation",[20]; radiation 3 fractions of 1.8 Gy,about 25%
same,inhibition at 100 nm,[21],less than 50%
same,inhibition at 100 nm,[22],less than 50%
same,apoptosis (Annexin-PI),"[23]; 48 h, vs DMSO vehicle control",induction of apoptosis; also recorded: increased populations in early apoptosis
same,"viable cells (Annexin negative, PI negative)","[23]; 48 h, vs DMSO vehicle control",decreased viable cells
same,cell growth,[23]; vs vehicle,diminished cell growth
